SMILES	logP
Cc1nc(OCCOCCO)c(C#N)cc1-c1ccncc1	1.81
N#Cc1cc(-c2ccncc2)cnc1Oc1ccccc1	3.09
COc1ncc(-c2ccncc2)cc1C#N	2.02
Cc1nc(OCCO)c(C#N)cc1-c1ccccc1	3.23
COCCOc1nc(C)c(-c2ccccc2)cc1C#N	3.74
COCCOc1nc(C)c(-c2ccncc2)cc1C#N	2.4
COc1nc(C)c(-c2ccncc2)cc1C#N	2.41
Cc1nc(OCCO)c(C#N)cc1-c1ccncc1	1.83

Results, then the molecule that gave them:

logP	SMILES
1.65	CC(O)COc1ncc(-c2ccncc2)cc1C#N (centres undefined)
0.76	N#Cc1cc(-c2ccncc2)cnc1OCC(O)CO (centres undefined)
1.5	N#Cc1cc(-c2ccncc2)cnc1OCCOCCO
1.96	COCCOc1ncc(-c2ccncc2)cc1C#N
2.59	CCOc1ncc(-c2ccncc2)cc1C#N
1.63	N#Cc1cc(-c2ccncc2)cnc1OCCCO

Source: the SangsterLogP compilation
